Measured values as given in patent US11643391B2, “Prodrugs and conjugates of dimethyltryptamine” (priority 2021, dated 2023).

What was measured:
[1] = background statement, cited from earlier work
[2] = Stability in SGF with pepsin; type: physicochemical
[3] = Stability in SGF without pepsin; type: physicochemical
[4] = Stability in Mouse Plasma; type: in vitro ADME
[5] = Stability in PBS pH 6.5
[6] = physchem; settings: buffer, pH 6.5
[7] = Table 8, if calculated T½ < 0, T½ reported as 9999 min

## CN(C)CCc1c[nH]c2ccccc12 [DMT, N,N-dimethyltryptamine]
[1]; at higher doses
  estimated half-life: less than fifteen minutes
[1]; converted by monoamine oxidases
  oral bioavailability: poor oral bioavailability

## CCCCC(=O)Oc1cccc2ccn(CCN(C)C)c12 [VLS-03-1]
[2]; 0 min
  Peak Area of MRM: 205.0/159.8 (analyte VLS-03-1 Parent): 5.72E+04
[2]; 30 min
  Peak Area of MRM: 205.0/159.8 (analyte VLS-03-1 Parent): 5.37E+04
[2]; 60 min
  Peak Area of MRM: 205.0/159.8 (analyte VLS-03-1 Parent): 5.01E+04
[2]; 120 min
  Peak Area of MRM: 205.0/159.8 (analyte VLS-03-1 Parent): 5.48E+04
[2]; 240 min
  Peak Area of MRM: 205.0/159.8 (analyte VLS-03-1 Parent): 5.27E+04
[2]; Table 8, 0 min
  Remaining Percentage: 100.00%
[2]; Table 8, 30 min
  Remaining Percentage: 101.74%
[2]; Table 8, 60 min
  Remaining Percentage: 90.49%
[2]; Table 8, 120 min
  Remaining Percentage: 102.16%
[2]; Table 8, 240 min
  Remaining Percentage: 96.47%
[2]; [7]
  half-life: 149 h
[2]; VLS-03-1 standard
  Peak Area of MRM: 205.0/159.8 (analyte VLS-03-1 Parent): 4.22E+04
[3]; 0 min
  Peak Area of MRM: 205.0/159.8 (analyte VLS-03-1 Parent): 4.53E+04
[3]; 30 min
  Peak Area of MRM: 205.0/159.8 (analyte VLS-03-1 Parent): 4.75E+04
[3]; 60 min
  Peak Area of MRM: 205.0/159.8 (analyte VLS-03-1 Parent): 4.51E+04
[3]; 120 min
  Peak Area of MRM: 205.0/159.8 (analyte VLS-03-1 Parent): 4.66E+04
[3]; 240 min
  Peak Area of MRM: 205.0/159.8 (analyte VLS-03-1 Parent): 4.57E+04
[3]; Table 8, 0 min
  Remaining Percentage: 100.00%
[3]; Table 8, 30 min
  Remaining Percentage: 106.25%
[3]; Table 8, 60 min
  Remaining Percentage: 99.72%
[3]; Table 8, 120 min
  Remaining Percentage: 104.22%
[3]; Table 8, 240 min
  Remaining Percentage: 103.22%
[3]; [7]
  T½: 166.65 h
[3]; VLS-03-1 standard
  Peak Area of MRM: 205.0/159.8 (analyte VLS-03-1 Parent): 3.75E+04
[4]; Table 9, 0 min
  Remaining Percentage: 100.00%
[4]; Table 9, 15 min
  Remaining Percentage: 0.00%
[4]; Table 9, 30 min
  Remaining Percentage: 0.00%
[4]; Table 9, 60 min
  Remaining Percentage: 0.00%
[4]; Table 9, 120 min
  Remaining Percentage: 0.00%
[5]; 0 min
  Peak Area of MRM: 205.0/159.8 (analyte VLS-03-1 Parent): 5.04E+04
[5]; 30 min
  Peak Area of MRM: 205.0/159.8 (analyte VLS-03-1 Parent): 4.71E+04
[5]; 60 min
  Peak Area of MRM: 205.0/159.8 (analyte VLS-03-1 Parent): 4.71E+04
[5]; 120 min
  Peak Area of MRM: 205.0/159.8 (analyte VLS-03-1 Parent): 4.86E+04
[5]; 240 min
  Peak Area of MRM: 205.0/159.8 (analyte VLS-03-1 Parent): 4.75E+04
[5]; Table 8, 0 min
  Remaining Percentage: 100.00%
[5]; Table 8, 30 min
  Remaining Percentage: 96.32%
[5]; Table 8, 60 min
  Remaining Percentage: 99.71%
[5]; Table 8, 120 min
  Remaining Percentage: 100.03%
[5]; Table 8, 240 min
  Remaining Percentage: 101.35%
[5]; [7]
  T½: 166.65 h
[5]; VLS-03-1 standard
  Peak Area of MRM: 205.0/159.8 (analyte VLS-03-1 Parent): 4.49E+04

## CC(OC(=O)n1cc(CCN(C)C)c2ccccc21)OC(=O)C(C)(C)C (racemic) [VLS-03-15]
[2]; 0 min
  Peak Area of MRM: 205.0/159.8 (analyte VLS-03-15 Parent): 6.75E+05
[2]; 30 min
  Peak Area of MRM: 205.0/159.8 (analyte VLS-03-15 Parent): 7.21E+05
[2]; 60 min
  Peak Area of MRM: 205.0/159.8 (analyte VLS-03-15 Parent): 7.26E+05
[2]; 120 min
  Peak Area of MRM: 205.0/159.8 (analyte VLS-03-15 Parent): 7.14E+05
[2]; 240 min
  Peak Area of MRM: 205.0/159.8 (analyte VLS-03-15 Parent): 7.15E+05
[2]; Table 8, 0 min
  Remaining Percentage: 100.00%
[2]; Table 8, 30 min
  Remaining Percentage: 97.29%
[2]; Table 8, 60 min
  Remaining Percentage: 107.53%
[2]; Table 8, 120 min
  Remaining Percentage: 103.18%
[2]; Table 8, 240 min
  Remaining Percentage: 102.22%
[2]; [7]
  T½: 166.65 h
[2]; VLS-03-15 standard
  Peak Area of MRM: 205.0/159.8 (analyte VLS-03-15 Parent): 6.26E+05
[3]; 0 min
  Peak Area of MRM: 205.0/159.8 (analyte VLS-03-15 Parent): 7.05E+05
[3]; 30 min
  Peak Area of MRM: 205.0/159.8 (analyte VLS-03-15 Parent): 6.94E+05
[3]; 60 min
  Peak Area of MRM: 205.0/159.8 (analyte VLS-03-15 Parent): 6.55E+05
[3]; 120 min
  Peak Area of MRM: 205.0/159.8 (analyte VLS-03-15 Parent): 7.09E+05
[3]; 240 min
  Peak Area of MRM: 205.0/159.8 (analyte VLS-03-15 Parent): 6.96E+05
[3]; Table 8, 0 min
  Remaining Percentage: 100.00%
[3]; Table 8, 30 min
  Remaining Percentage: 101.12%
[3]; Table 8, 60 min
  Remaining Percentage: 103.35%
[3]; Table 8, 120 min
  Remaining Percentage: 105.28%
[3]; Table 8, 240 min
  Remaining Percentage: 97.98%
[3]; [7]
  half-life: 131 h
[3]; VLS-03-15 standard
  Peak Area of MRM: 205.0/159.8 (analyte VLS-03-15 Parent): 6.10E+05
[4]; Table 9, 0 min
  Remaining Percentage: 100.00%
[4]; Table 9, 15 min
  Remaining Percentage: 0.00%
[4]; Table 9, 30 min
  Remaining Percentage: 0.00%
[4]; Table 9, 60 min
  Remaining Percentage: 0.00%
[4]; Table 9, 120 min
  Remaining Percentage: 0.00%
[6]
  half-life: 15.4 h
[5]; 0 min
  Peak Area of MRM: 205.0/159.8 (analyte VLS-03-15 Parent): 6.56E+05
[5]; 30 min
  Peak Area of MRM: 205.0/159.8 (analyte VLS-03-15 Parent): 6.55E+05
[5]; 60 min
  Peak Area of MRM: 205.0/159.8 (analyte VLS-03-15 Parent): 6.28E+05
[5]; 120 min
  Peak Area of MRM: 205.0/159.8 (analyte VLS-03-15 Parent): 5.86E+05
[5]; 240 min
  Peak Area of MRM: 205.0/159.8 (analyte VLS-03-15 Parent): 5.51E+05
[5]; Table 8, 0 min
  Remaining Percentage: 100.00%
[5]; Table 8, 30 min
  Remaining Percentage: 96.93%
[5]; Table 8, 60 min
  Remaining Percentage: 89.82%
[5]; Table 8, 120 min
  Remaining Percentage: 89.44%
[5]; Table 8, 240 min
  Remaining Percentage: 82.54%
[5]; VLS-03-15 standard
  Peak Area of MRM: 205.0/159.8 (analyte VLS-03-15 Parent): 6.74E+05

## CC(OC(=O)C(C)C)OC(=O)n1cc(CCN(C)C)c2ccccc21 (centres unmarked) [VLS-03-10]
[2]; 0 min
  Peak Area of MRM: 188.7/144.0 (analyte VLS-03-10 Parent): 5.13E+03
[2]; 30 min
  Peak Area of MRM: 188.7/144.0 (analyte VLS-03-10 Parent): 5.10E+03
[2]; 60 min
  Peak Area of MRM: 188.7/144.0 (analyte VLS-03-10 Parent): 5.25E+03
[2]; 120 min
  Peak Area of MRM: 188.7/144.0 (analyte VLS-03-10 Parent): 5.32E+03
[2]; 240 min
  Peak Area of MRM: 188.7/144.0 (analyte VLS-03-10 Parent): 5.28E+03
[2]; Table 8, 0 min
  Remaining Percentage: 100.00%
[2]; Table 8, 30 min
  Remaining Percentage: 96.82%
[2]; Table 8, 60 min
  Remaining Percentage: 93.09%
[2]; Table 8, 120 min
  Remaining Percentage: 91.42%
[2]; Table 8, 240 min
  Remaining Percentage: 89.32%
[2]; [7]
  half-life: 26.7 h
[2]; VLS-03-10 standard
  Peak Area of MRM: 188.7/144.0 (analyte VLS-03-10 Parent): 4.05E+03
[3]; 0 min
  Peak Area of MRM: 188.7/144.0 (analyte VLS-03-10 Parent): 5.29E+03
[3]; 30 min
  Peak Area of MRM: 188.7/144.0 (analyte VLS-03-10 Parent): 4.98E+03
[3]; 60 min
  Peak Area of MRM: 188.7/144.0 (analyte VLS-03-10 Parent): 4.66E+03
[3]; 120 min
  Peak Area of MRM: 188.7/144.0 (analyte VLS-03-10 Parent): 4.93E+03
[3]; 240 min
  Peak Area of MRM: 188.7/144.0 (analyte VLS-03-10 Parent): 4.61E+03
[3]; Table 8, 0 min
  Remaining Percentage: 100.00%
[3]; Table 8, 30 min
  Remaining Percentage: 99.86%
[3]; Table 8, 60 min
  Remaining Percentage: 104.95%
[3]; Table 8, 120 min
  Remaining Percentage: 98.41%
[3]; Table 8, 240 min
  Remaining Percentage: 98.86%
[3]; [7]
  half-life: 117 h
[3]; VLS-03-10 standard
  Peak Area of MRM: 188.7/144.0 (analyte VLS-03-10 Parent): 3.46E+03
[4]; Table 9, 0 min
  Remaining Percentage: 100.00%
[4]; Table 9, 15 min
  Remaining Percentage: 0.00%
[4]; Table 9, 30 min
  Remaining Percentage: 0.00%
[4]; Table 9, 60 min
  Remaining Percentage: 0.00%
[4]; Table 9, 120 min
  Remaining Percentage: 0.00%
[6]
  half-life: 331 h
[5]; 0 min
  Peak Area of MRM: 188.7/144.0 (analyte VLS-03-10 Parent): 5.32E+03
[5]; 30 min
  Peak Area of MRM: 188.7/144.0 (analyte VLS-03-10 Parent): 4.68E+03
[5]; 60 min
  Peak Area of MRM: 188.7/144.0 (analyte VLS-03-10 Parent): 5.00E+03
[5]; 120 min
  Peak Area of MRM: 188.7/144.0 (analyte VLS-03-10 Parent): 4.72E+03
[5]; 240 min
  Peak Area of MRM: 188.7/144.0 (analyte VLS-03-10 Parent): 4.95E+03
[5]; Table 8, 0 min
  Remaining Percentage: 100.00%
[5]; Table 8, 30 min
  Remaining Percentage: 92.62%
[5]; Table 8, 60 min
  Remaining Percentage: 100.03%
[5]; Table 8, 120 min
  Remaining Percentage: 92.63%
[5]; Table 8, 240 min
  Remaining Percentage: 97.66%
[5]; VLS-03-10 standard
  Peak Area of MRM: 188.7/144.0 (analyte VLS-03-10 Parent): 4.34E+03
